# Experimental data reported in US9034929B2, “Aminoalcohol and biocide compositions for aqueous based systems” (ANGUS Chemical Company, priority 2007, dated 2015).
# Experiments:
# [1] = system: bacteria of a mixed bacterial/fungal inoculum isolated from spoiled metalworking fluids; experiment: ASTM Practice E 2275-03 microbial challenge test of diluted metalworking fluids, bacterial counts; type: cell-based; settings: for bacterial growth / resistance to bacterial attack: 8% amino alcohol fluid with benzisothiazolinone (BIT), 0.012% active in diluted fluid, FIG. 5
# Method: (§1) This compound was formulated at 8% by weight into a generic semi-synthetic metalworking fluid concentrate as described in Table 1. Identical formulations were prepared except substituting conventional amino alcohol compounds for 3A4O. The conventional amino alcohols were 2-amino-2-methyl-1-propanol (AMP) and n-butylethanolamine (BEA). An identical set of fluid concentrates was prepared including 1.5% of a 77% aqueous solution of 1,3,5-tris(2-hydroxyethyl)-s-triazine preservative, allowing us to evaluate fluids with and without preservative. The fluid concentrates were diluted at a rate of 20 parts Chicago tap water to 1 part fluid concentrate (by weight); the active amino alcohol concentration at dilution was therefore approximately 0.4% and the active preservative dosage (in the preserved set) was approximately 0.058%. These fluids were subjected to microbial challenge testing by ASTM Practice E 2275-03. In this method fluids are inoculated initially and then weekly with a mixed bacterial/fungal inoculum isolated from spoiled metalworking fluids. The bacterial and fungal counts are measured weekly using a serial dilution plate count method, and reported as colony forming units per milliliter (CFU/mL). The lower the CFU/mL the better the microbial control, and the longer the predicted service life of the fluid. The microbial results are described in FIGS. 1 & 2 (unpreserved) and FIGS. 3 & 4 (preserved with triazine).
# (§2) This material was formulated into the same metalworking fluid concentrate described in Example A, at an 8% concentration. Identical fluids were prepared using 8% 2-amino-2-methyl-1-propanol (AMP) and 8% dicyclohexylamine (DCHA). The preservative benzisothiazolinone (BIOBAN BIT 20 DPG from Dow Biocides) was added to each fluid concentrate at 1.2%, giving an active concentration of 0.24% in the fluid concentrates and 0.012% in the use diluted fluids. The diluted fluids were subjected to the same microbial testing protocol described in Example A, and the results are described in FIGS. 5 & 6.
# (§3) In order to understand the influence of use level of the amino alcohols of the invention, we prepared similar semi-synthetic fluid concentrates as described previously but using 4% amino alcohol to give 2000 ppm at use dilution; the difference in the formulation was made up with water. The fluid concentrates were preserved with the same level of triazine-77% described previously. These fluids were diluted and subjected to the same bacterial/fungal challenge tests described in Examples A and B; the data are found in FIGS. 8 & 9.
# FIGS. 10-17 provide additional comparisons between 3-amino-4-octanol (3A4O), an aminoalcohol of the invention, and the non-invention aminoalcohol compounds 2-amino-2-methyl-1-propanol (AMP) and n-butylethanolamine (BEA), in conjunction with various biocides. In particular, FIGS. 10 and 11 bacterial and fungal efficacy comparisons of the aminoalcohols with BIOBAN P-1487 (a combination of 4-(2-nitrobutyl)-morpholine with 4,4′-(2-ethyl-2-nitrotrimethylene)dimorpholine). This biocide was added to give 750 ppm in the diluted fluid. The amine dosage was adjusted to give 4000 ppm at dilution. FIGS. 12 and 13 show bacterial and fungal efficacies of the aminoalcohols in the presence of a triazine/IPBC biocide blend. Triazine-78% was added at 750 ppm based on diluted fluid and iodopropynylbutylcarbamate (IPBC) added at 300 ppm active at dilution. The amine dosage was adjusted to give 3000 ppm at dilution. FIGS. 14 and 15 show bacterial and fungal efficacy of the compounds with Benzisothiazolinone (BIT). BIT was added at 120 ppm active based on diluted fluid and iodopropynylbutylcarbamate (IPBC) added at 300 ppm active at dilution. The amine dosage was adjusted to give 3000 ppm at dilution. FIGS. 16 and 17 show bacterial and fungal efficacy of the aminoalcohols with a chloromethylisothiazolinone/methylisothiazolinone (CMIT/MIT) blend. […]
# [2] = system: fungi of a mixed bacterial/fungal inoculum isolated from spoiled metalworking fluids; experiment: ASTM Practice E 2275-03 microbial challenge test of diluted metalworking fluids, fungal counts; type: cell-based
# Method: as §1, §2
# as §3, with “9. […]” for “9.”
# [3] = system: mycobacterium immunogenum (ATTCC strain 700505); experiment: ASTM microbial challenge test with mycobacterial inoculum; type: cell-based; settings: 8% amino alcohol fluid with 1.5% triazine preservative (77% active) in concentrate; FIG. 7
# pseudomonas aeroginosa = settings: stated as known; cited from earlier work
# [4] = system: fungi of a mixed bacterial/fungal inoculum isolated from spoiled metalworking fluids; settings: at the dosage used (about 0.058% active at dilution); cited from earlier work
smiles,measurement,setting,value
"CCCCC(O)C(C)N (stereo not shown) [2A3H, 2-amino-3-heptanol]",bacterial growth / resistance to bacterial attack,[1],more resistant to bacterial attack than the others
same,"bacterial growth (plate count, CFU/mL)","[1]; unpreserved semi-synthetic MWF, 8% amino alcohol in concentrate (about 0.4% at dilution), weekly inoculation, FIG. 1",does not significantly inhibit bacterial or fungal growth
same,fungal growth / resistance to fungal attack,"[2]; 8% amino alcohol fluid with benzisothiazolinone (BIT), 0.012% active in diluted fluid, FIG. 6","resists attack better than that with AMP, and is comparable in resistance to the fluid with DCHA"
same,"fungal growth (plate count, CFU/mL)","[2]; unpreserved semi-synthetic MWF, 8% amino alcohol in concentrate (about 0.4% at dilution), weekly inoculation, FIG. 2",does not significantly inhibit bacterial or fungal growth
"CCCCC(O)C(N)CC (stereo not shown) [3A4O, 3-amino-4-octanol]","bacterial growth (plate count, CFU/mL)","[1]; 8% amino alcohol fluid preserved with triazine (about 0.058% active at dilution), FIG. 3",unexpected reduction in growth rate over the full course of the test
same,enhancement of biocide efficacy against bacteria,"[1]; amine 3000-4000 ppm at dilution with BIOBAN P-1487, triazine/IPBC, BIT or CMIT/MIT, FIGS. 10, 12, 14, 16",increased enhancement of biocide efficacy
same,"fungal growth (plate count, CFU/mL)","[2]; 8% amino alcohol fluid preserved with triazine (about 0.058% active at dilution), FIG. 4",unexpected reduction in growth rate over the full course of the test
same,enhancement of biocide efficacy against fungi,"[2]; amine 3000-4000 ppm at dilution with BIOBAN P-1487, triazine/IPBC, BIT or CMIT/MIT, FIGS. 11, 13, 15, 17",greater enhancement against fungi
"CC(C)(N)CO [AMP, 2-amino-2-methyl-1-propanol, reference compound]",mycobacterial growth / resistance,[3],virtually no inhibition of activity
same,bacterial growth / resistance to bacterial attack,[1],relatively poor performance against bacteria
"O=c1[nH]sc2ccccc12 [BIT, benzisothiazolinone]",efficacy against pseudomonas aeroginosa,pseudomonas aeroginosa,not to be effective
"C1CCC(NC2CCCCC2)CC1 [DCHA, dicyclohexylamine, reference compound]",bacterial growth / resistance to bacterial attack,[1],the opposite is true
"OCCN1CN(CCO)CN(CCO)C1 [triazine preservative, 1,3,5-tris(2-hydroxyethyl)-s-triazine]",efficacy of the preservative alone against fungi,[4],not effective against fungi
